Data set [1] deals with NCI/ADR-RES. The experiment in a line: Inhibition of Pgp in human MCF7/ADR cells assessed as increase in doxorubicin accumulation at 20 uM relative to untreated control. The format is cell-based.
In the next data set the test system is Caco-2. Kind of data set: Ratio of permeability from basolateral to apical side over apical to basolateral side in human Caco-2 cells. The format is ADME, cell-based.
In data set [2] the test system is NCI/ADR-RES. The experiment in a line: Inhibition of Pgp in human MCF7/ADR cells assessed as potentiation of doxorubicin-induced cytotoxicity at 20 uM relative to untreated control. The format is cell-based. The arrangement: Activity: scale not given: the % may be the effect or the level left.

As to `COc1cc2c(cc1OC)CN(CCCC1CCCc3c(OC)cccc31)CC2` (stereo unspecified), in the data set with NCI/ADR-RES [1], the fold change (FC) was determined as 4.8. Also, the Ratio with Caco-2 is on record as 18. Further, the Activity with NCI/ADR-RES [2] turned out to be 85%.
In the case of `COc1cc2c(cc1OC)CN(CC/C=C1\CCCc3c(OC)cccc31)CC2`, the figures for the fold change (FC) in the data set with NCI/ADR-RES [1] and in the data set with NCI/ADR-RES [2] were 5.7 and 95, respectively. Moreover, the Ratio in the data set on Caco-2 is 1.6.

The record behind these values is ChEMBL document CHEMBL1137781, “Synthesis and preclinical evaluation of novel PET probes for P-glycoprotein function and expression” (J Med Chem, 2009).
